Laboratory results: PMC10224544, “Synthesis, Structural Elucidation and Pharmacological Applications of Cu(II) Heteroleptic Carboxylates” (Pharmaceuticals, 2023)
Read-outs that look alike come from different tables or passages of the source.

Legend:
[1] = target: butyrylcholinesterase (BChE) (Equus caballus, UniProt P81908); assay: biochemical; conditions: for inhibition at 62.5 µg/mL / inhibition at 125 µg/mL / inhibition at 250 µg/mL / inhibition at 500 µg/mL / inhibition at 1000 µg/mL: read-out: inhibition of butyrylcholinesterase (% BChE activity)
Description: (§1) The enzymes acetylcholinesterase (AChE) and butyrylcholinesterase (BChE) play an important role in the transfer of signals and physiological function. They assist acetylcholine to hydrolyze and produce choline and acetyl group in synaptic region. So, they are considered as targets in the management of Alzheimer’s disease. Herein, the compounds under study were evaluated for their potential to inhibit acetylthiocholine iodide (AChI) and butyrylthiocholine iodide (BChI) enzymes.
(§2) The well-known Ellman’s assay was implemented to evaluate the inhibitory potential using acetylthiocholine iodide (AChI) and butyrylthiocholine iodide (BChI) as substrates, respectively. The basic principle of the assay is the hydrolysis of acetylthiocholine iodide and butyrylthiocholine iodide by their corresponding enzymes, resulting in the formation of 5-thio-2-nitrobenzoate anion.
(§3) To carry out the assay, 0.1 M buffer solution with pH 8 was prepared as per the cited literature where the pH was adjusted using KOH (potassium hydroxide). Using the freshly prepared buffer and following the dilution, final concentrations of 0.03 U/mL for AChE (518 U/mg solid) and 0.01 U/mL for BChE (7–16 U/mg) were obtained. […] After that, the final solution of each of the AChE and BChE was prepared in distilled water in the presence of […] DTNB and were stored at 8 °C. The experiment was performed by taking 205 µL of inhibitor (tested compound) along with 5 µL of prepared solutions of enzymes, followed by the addition of 5 μL DTNB reagent. They were then incubated for about 15 min in a water bath at a temperature of 30 °C. Later on, 5 µL substrate solution was added to them which were subjected to absorption check at 412 nm. […] The temperature of the spectrophotometer was adjusted at 30 °C and then, following the reaction time of 4 min, the absorbance values were noted after regular intervals. The experiment was repeated, and change in absorption with time was used to calculate the percentage activity of enzyme and enzyme inhibitor [59]. The p values, or calculated probability levels, are categorized as: 5% (p < 0.05), 1% (p < 0.01) and 0.1% (p < 0.001). p < 0.05 means statistically significant and p < 0.001 means highly statistically significant.

[2] = target: acetylcholinesterase (AChE) (Electrophorus electricus, UniProt O42275); assay: biochemical; assay type: biochemical; conditions: for inhibition at 62.5 µg/mL / inhibition at 125 µg/mL / inhibition at 250 µg/mL / inhibition at 500 µg/mL / inhibition at 1000 µg/mL: read-out: Inhibition of Acetylcholinesterase (%AChE Activity)
Description: The synthesized compounds were evaluated for acetylcholinesterase (ACh) and butyrylcholinesterase (BCh) enzyme inhibitory activities.
as §1, §2, §3

DPPH scavenging assay [3] = conditions: Comp. Conc. 62.5 µg/mL; mean ± S.E.M, n = 3
DPPH scavenging assay [4] = conditions: for DPPH Free Radical Scavenging Ability: mean ± S.E.M, n = 3
Excerpt: The antioxidant potential of the free acids and their Cu(II) carboxylates was explored via the DPPH method using ascorbic acid as a reference. The DPPH, with a single unpaired electron, is capable of accepting a hydrogen or electron and gives a strong absorption at 517 nm. The absorption generally decreases when it accepts a hydrogen or electron from an antioxidant, forming a stable molecule. The results given in Table 5 indicate that the compounds under study show a moderate level of antioxidant potential. This activity may be attributed to the various structural and electronic factors like coordination geometry, redox properties, chelate ring size, degree of unsaturation, etc.. The transfer of proton or electron from an antioxidant to DPPH results in the formation of species that undergo other reactions like coupling, fragmentation, and addition, which affect the rate and stoichiometry of the reaction.
The compounds under study were subjected to DPPH scavenging ability test as per cited literature. A 0.004% solution of reagent DPPH was added to the different concentrations of tested compounds (i.e., 125, 250, 500 and 1000 μg/mL) and the reaction mixture was incubated subsequently for about thirty minutes in dark. Ascorbic acid was used as positive control. The UV-3000 O.R.I. Germany was used to record the change in absorption of the reaction mixture at 517 nm and the percentage scavenging ability of the compounds under study was determined using formula: % scavenging activity =Absorbance of control−Absorbance of compounds /Absorbance of control×100
The experiments were repeated thrice. The GraphPad Prism® (version 4.0, Sandiego, CA, USA) was used to calculate the IC50 values.

[5] = Hydrogen peroxide scavenging assay; conditions: for H2O2 free radical scavenging ability: mean ± S.E.M, n = 3
Description: In addition to DPPH the ligand acids and their complexes were also evaluated for their peroxide scavenging ability test. Hydrogen peroxide (H2O2) is a biologically important, non-radical reactive oxygen species (ROS) that can influence several cellular processes. It is a weak oxidizing agent and can inactivate a few enzymes directly, usually via oxidation of essential thiol (-SH) groups. It can cross cell membranes rapidly, and inside the cell, H2O2 probably reacts with Fe^2+ (and possibly Cu^2+) ions to form the hydroxyl radical, which may be the origin of many of its toxic effects. It is, therefore, biologically advantageous for cells to control the amount of hydrogen peroxide that is allowed to accumulate.
The ligand acids and their Cu(II) carboxylates were further subjected to H2O2 scavenging ability test potential by following the procedure as per cited literature. A 2 mM solution of H2O2 was made in 50 mM phosphate buffer having a pH 7.4. In the next step, 0.1 mL of the screened compounds was added to the 0.3 mL (50 mM) of phosphate buffer, then 0.6 mL of H2O2 was added and the solution was vortexed. After following the incubation period of 10 min, the absorption was 230 nm in comparison to the blank.

acetylcholinesterase (AChE), sequence (O42275 24-633): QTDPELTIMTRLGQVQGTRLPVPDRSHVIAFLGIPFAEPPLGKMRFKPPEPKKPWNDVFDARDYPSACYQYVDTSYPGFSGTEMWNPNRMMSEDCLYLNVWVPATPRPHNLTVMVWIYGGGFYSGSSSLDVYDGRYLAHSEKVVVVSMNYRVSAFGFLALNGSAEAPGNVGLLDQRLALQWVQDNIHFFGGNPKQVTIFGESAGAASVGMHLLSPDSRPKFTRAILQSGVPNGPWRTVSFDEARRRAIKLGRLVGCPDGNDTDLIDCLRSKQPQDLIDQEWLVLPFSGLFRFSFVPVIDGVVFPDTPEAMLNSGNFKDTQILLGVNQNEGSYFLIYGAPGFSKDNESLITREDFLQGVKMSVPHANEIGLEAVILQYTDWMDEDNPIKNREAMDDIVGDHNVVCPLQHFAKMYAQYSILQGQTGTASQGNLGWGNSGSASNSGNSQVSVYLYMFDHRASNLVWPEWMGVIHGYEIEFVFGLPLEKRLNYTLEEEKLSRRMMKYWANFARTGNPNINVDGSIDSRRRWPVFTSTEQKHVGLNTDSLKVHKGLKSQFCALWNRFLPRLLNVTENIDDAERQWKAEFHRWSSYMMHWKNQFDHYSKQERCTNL
butyrylcholinesterase (BChE), sequence (P81908 whole entry): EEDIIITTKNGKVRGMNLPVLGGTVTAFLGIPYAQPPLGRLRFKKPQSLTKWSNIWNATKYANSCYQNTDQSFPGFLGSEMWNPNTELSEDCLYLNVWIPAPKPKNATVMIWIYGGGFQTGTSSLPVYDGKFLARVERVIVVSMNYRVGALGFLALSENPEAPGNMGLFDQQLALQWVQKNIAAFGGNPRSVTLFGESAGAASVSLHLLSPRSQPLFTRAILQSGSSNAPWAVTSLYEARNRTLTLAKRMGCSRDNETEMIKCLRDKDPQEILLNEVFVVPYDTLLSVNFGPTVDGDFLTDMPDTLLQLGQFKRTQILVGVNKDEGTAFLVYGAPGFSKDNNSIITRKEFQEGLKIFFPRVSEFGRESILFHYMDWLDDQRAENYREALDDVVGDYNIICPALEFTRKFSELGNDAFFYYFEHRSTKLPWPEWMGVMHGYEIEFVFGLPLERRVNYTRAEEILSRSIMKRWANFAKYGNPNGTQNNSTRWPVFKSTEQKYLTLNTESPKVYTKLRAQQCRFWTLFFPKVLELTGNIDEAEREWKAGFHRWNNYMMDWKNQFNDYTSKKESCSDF

| Compound | DPPH Free Radical Scavenging Ability (DPPH scavenging assay [3]) | IC50, DPPH Free Radical Scavenging Ability (DPPH scavenging assay [4]) | DPPH Free Radical Scavenging Ability (DPPH scavenging assay [4]; Comp. Conc. 125 µg/mL) | DPPH Free Radical Scavenging Ability (DPPH scavenging assay [4]; Comp. Conc. 250 µg/mL) | DPPH Free Radical Scavenging Ability (DPPH scavenging assay [4]; Comp. Conc. 500 µg/mL) | DPPH Free Radical Scavenging Ability (DPPH scavenging assay [4]; Comp. Conc. 1000 µg/mL) | H2O2 free radical scavenging ability ([5]; Comp. Conc. 62.5 µg/mL) | H2O2 free radical scavenging ability ([5]; Comp. Conc. 125 µg/mL) | H2O2 free radical scavenging ability ([5]; Comp. Conc. 250 µg/mL) | H2O2 free radical scavenging ability ([5]; Comp. Conc. 500 µg/mL) | H2O2 free radical scavenging ability ([5]; Comp. Conc. 1000 µg/mL) | IC50, inhibition of butyrylcholinesterase [1] | inhibition of butyrylcholinesterase (% BChE activity) ([1]; Comp. Conc. 62.5 µg/mL, n = 3) | inhibition of butyrylcholinesterase (% BChE activity) ([1]; Comp. Conc. 125 µg/mL, n = 3) | inhibition of butyrylcholinesterase (% BChE activity) ([1]; Comp. Conc. 250 µg/mL, n = 3) | inhibition of butyrylcholinesterase (% BChE activity) ([1]; Comp. Conc. 500 µg/mL, n = 3) | inhibition of butyrylcholinesterase (% BChE activity) ([1]; Comp. Conc. 1000 µg/mL, n = 3) | IC50, Inhibition of Acetylcholinesterase [2] | Inhibition of Acetylcholinesterase (%AChE Activity) ([2]; Comp. Conc. 62.5 µg/mL, n = 3) | Inhibition of Acetylcholinesterase (%AChE Activity) ([2]; Comp. Conc. 125 µg/mL, n = 3) | other results |
| --- | --- | --- | --- | --- | --- | --- | --- | --- | --- | --- | --- | --- | --- | --- | --- | --- | --- | --- | --- | --- | --- |
| O=C(O)Cc1ccccc1Cl [L^1, 2-chlorophenyl acetic acid] | – | – | – | – | – | – | – | – | – | – | – | – | – | – | – | – | – | – | – | – | inhibition at 62.5 µg/mL ([1]; Comp. Conc. 62.5 µg/mL, n = 3): 58.15 ± 0.22%; inhibition at 125 µg/mL ([1]; Comp. Conc. 125 µg/mL, n = 3): 63.4 ± 0.71%; inhibition at 250 µg/mL ([1]; Comp. Conc. 250 µg/mL, n = 3): 68.39 ± 0.35%; inhibition at 500 µg/mL ([1]; Comp. Conc. 500 µg/mL, n = 3): 73.42 ± 0.12%; inhibition at 1000 µg/mL ([1]; Comp. Conc. 1000 µg/mL, n = 3): 77.73 ± 0.03%; IC50 ([1]; read-out: IC50, inhibition of butyrylcholinesterase (converted)): 258 µM; inhibition at 62.5 µg/mL ([2]; Comp. Conc. 62.5 µg/mL, n = 3): 50.35 ± 0.11%; inhibition at 125 µg/mL ([2]; Comp. Conc. 125 µg/mL, n = 3): 54.02 ± 0.24%; inhibition at 250 µg/mL ([2]; Comp. Conc. 250 µg/mL, n = 3): 57.34 ± 0.35%; inhibition at 500 µg/mL ([2]; Comp. Conc. 500 µg/mL, n = 3): 62.29 ± 0.32%; inhibition at 1000 µg/mL ([2]; Comp. Conc. 1000 µg/mL, n = 3): 65.39 ± 0.4% |
| N#Cc1ccncc1.N#Cc1ccncc1.O=C([O-])Cc1cccc(Cl)c1.O=C([O-])Cc1cccc(Cl)c1.O=C([O-])Cc1cccc(Cl)c1.O=C([O-])Cc1cccc(Cl)c1.[Cu+2].[Cu+2] [Complex 5, Cu2(3-ClC6H4COO)4(4-CNPy)2] | 55.56 ± 0.52 % | 20.29 µg/mL | 64.78 ± 0.60 % | 71.46 ± 0.53 % | 77.68 ± 0.63 % | 85.72 ± 0.79 % | 59.81 ± 0.65 % | 66.65 ± 0.78 % | 75.70 ± 0.62 % | 80.76 ± 0.63 % | 84.83 ± 0.62 % | 04 µg/mL | 72.74 ± 0.61 % | 76.54 ± 0.50 % | 81.48 ± 0.64 % | 86.86 ± 0.60 % | 91.62 ± 0.74 % | 5 µg/mL | 69.91 ± 1.30 % | 71.76 ± 0.61 % | IC50, H2O2 free radical scavenging ability [5]: 27.35 µg/mL; Inhibition of Acetylcholinesterase (%AChE Activity) ([2]; Comp. Conc. 250 µg/mL, n = 3): 76.87 ± 1.27 %; Inhibition of Acetylcholinesterase (%AChE Activity) ([2]; Comp. Conc. 500 µg/mL, n = 3): 82.13 ± 0.20 ^⸸ %; Inhibition of Acetylcholinesterase (%AChE Activity) ([2]; Comp. Conc. 1000 µg/mL, n = 3): 89.20 ± 0.23 % |
| O=C(O)Cc1cccc(Cl)c1 [L^2, 3-chlorophenyl acetic acid] | – | – | – | – | – | – | – | – | – | – | – | – | – | – | – | – | – | – | – | – | IC50 [1]: 234 µM; inhibition at 62.5 µg/mL [1]: 58.15 ± 0.22%; inhibition at 125 µg/mL [1]: 63.4 ± 0.71%; inhibition at 250 µg/mL [1]: 68.39 ± 0.35%; inhibition at 500 µg/mL [1]: 73.42 ± 0.12%; inhibition at 1000 µg/mL [1]: 77.73 ± 0.03%; IC50 [2]: 234 µM; inhibition at 62.5 µg/mL [2]: 50.35 ± 0.11%; inhibition at 125 µg/mL [2]: 54.02 ± 0.24%; inhibition at 250 µg/mL [2]: 57.34 ± 0.35%; inhibition at 500 µg/mL [2]: 62.29 ± 0.32%; inhibition at 1000 µg/mL [2]: 65.39 ± 0.4% |
| N#Cc1cccnc1.N#Cc1cccnc1.O=C([O-])Cc1ccccc1Cl.O=C([O-])Cc1ccccc1Cl.O=C([O-])Cc1ccccc1Cl.O=C([O-])Cc1ccccc1Cl.[Cu+2].[Cu+2] [Complex 1, Cu2(2-ClC6H4COO)4(3-CNPy)2] | 55.57 ± 0.84 % | 17.69 µg/mL | 61.40 ± 0.51 % | 67.44 ± 0.55 % | 73.47 ± 0.52 % | 78.39 ± 0.49 % | 53.50 ± 0.73 % | 62.42 ± 0.57 % | 70.32 ± 0.52 % | 74.27 ± 0.57 % | 80.30 ± 0.64 % | 12 µg/mL | 64.53 ± 0.71 % | 68.51 ± 0.77 % | 71.75 ± 0.58 % | 76.45 ± 0.49 % | 81.79 ± 0.62 % | 39 µg/mL | 55.67 ± 0.61 % | 62.69 ± 0.77 % | Inhibition of Acetylcholinesterase (%AChE Activity) ([2]; Comp. Conc. 250 µg/mL, n = 3): 67.83 ± 0.56 %; Inhibition of Acetylcholinesterase (%AChE Activity) ([2]; Comp. Conc. 500 µg/mL, n = 3): 72.60 ± 0.80 %; Inhibition of Acetylcholinesterase (%AChE Activity) ([2]; Comp. Conc. 1000 µg/mL, n = 3): 77.61 ± 0.77 % |
